Assay results reported in ChEMBL document CHEMBL6103650, “Hybrid Molecules of Benzothiazole and Hydroxamic Acid as Dual-Acting Biofilm Inhibitors with Antibacterial Synergistic Effect against Pseudomonas aeruginosa Infections” (J Med Chem, 2025).
pIC50: −log10 of the molar value. Activity calls are given as the source filed them. No cut-off for these calls is given here.

Experiments:
[1] = Toxicity in BALB/c mouse wound infection model assessed as liver damage measured for 9 days by H and E staining based analysis; assay type: tissue-based; settings: in vivo, 216 h, time 9 day
[2] = tested on: Pseudomonas aeruginosa; test: Anti-motility activity against Pseudomonas aeruginosa PAO1 assessed as reduction in swimming motility at 10 uM incubated for 24 hrs relative to control; assay type: functional; set-up: scale not given: the % may be the effect or the level left
[3] = tested on: Pseudomonas aeruginosa; test: Antibiofilm activity against Pseudomonas aeruginosa PAO1 assessed as inhibition of biofilm formation incubated for 24 hrs by crystal violet staining based analysis; assay type: functional, organism-based
[4] = Hemolytic activity in mouse red blood cells at < 40 uM; assay type: toxicity, cell-based; settings: erythrocyte
[5] = Toxicity in BALB/c mouse wound infection model assessed as change in body weight measured for 9 days; settings: in vivo, 216 h, time 9 day
[6] = tested on: Pseudomonas aeruginosa; test: Antibacterial activity against Pseudomonas aeruginosa PAO1 infected in BALB/c mouse wound infection model assessed as bacterial survival rate in wound at 2.5 uM administered to wound once a day for 3 days in dropwise manner in presence of ciprofloxacin; assay type: functional; settings: PAO1, 72 h, time 3 day
[7] = tested on: Pseudomonas aeruginosa; test: Antibiofilm activity against Pseudomonas aeruginosa PAO1 assessed as increase in pyochelin level incubated for 2 hrs by fluorescence based analysis; assay type: functional, organism-based; settings: dose 0.3125-10 µM
[8] = Toxicity in BALB/c mouse assessed as kidney damage by H and E staining based analysis; settings: in vivo
[9] = Toxicity in BALB/c mouse wound infection model assessed as spleen damage measured for 9 days by H and E staining based analysis; assay type: tissue-based; settings: in vivo, 216 h, time 9 day
[10] = tested on: Pseudomonas aeruginosa; test: Antivirulence activity in Pseudomonas aeruginosa PAO1 assessed as reduction in elastase production at 10 uM incubated for 24 hrs relative to control; assay type: functional; set-up: scale not given: the % may be the effect or the level left
[11] = tested on: Pseudomonas aeruginosa; test: Antibiofilm activity against Pseudomonas aeruginosa PAO1 overexpressing fpvA assessed as inhibition of biofilm formation at 0.3125 to 10 uM incubated for 24 hrs by crystal violet staining based analysis; assay type: functional, organism-based; settings: dose 0.3125-10 µM
[12] = tested on: Pseudomonas aeruginosa; test: Antibiofilm activity against Pseudomonas aeruginosa PAO1 assessed as increase in pyoverdine level incubated for 2 hrs by fluorescence based analysis; assay type: functional, organism-based; settings: dose 0.3125-10 µM
[13] = tested on: Pseudomonas aeruginosa; test: Antibacterial activity against Pseudomonas aeruginosa PAO1 infected in BALB/c mouse wound infection model assessed as reduction in wound area at 2.5 uM administered to wound once a day for 3 days and measured after 9 days in dropwise manner in presence of Tob; assay type: functional; set-up: scale not given: the % may be the effect or the level left; settings: time 12 day
[14] = tested on: Pseudomonas aeruginosa; test: Synergistic […] activity against Pseudomonas aeruginosa PAO1 assessed as fractional inhibitory concentration index measured for 20 hrs in presence of tobramycin by microdilution checkboard assay; assay type: functional
[15] = tested on: Pseudomonas aeruginosa; test: Antibacterial activity against Pseudomonas aeruginosa PAO1 infected in BALB/c mouse wound infection model assessed as bacterial survival rate in wound at 1 mg/mL administered to wound once a day for 3 days in dropwise manner; assay type: functional; settings: PAO1, 72 h, time 3 day
[16] = tested on: Pseudomonas aeruginosa; test: Antibiofilm activity against Pseudomonas aeruginosa PA1121 assessed as inhibition of biofilm formation incubated for 24 hrs by crystal violet staining based analysis; assay type: functional, organism-based
[17] = tested on: Pseudomonas aeruginosa; test: Antibiofilm activity against Pseudomonas aeruginosa PAO1 assessed as inhibition of biofilm formation at 0.15625 to 2.5 uM incubated for 24 hrs by crystal violet staining based analysis; assay type: functional, organism-based; settings: dose 0.15625-2.5 µM
[18] = Hemolytic activity in rabbit red blood cells at < 40 uM; assay type: toxicity, cell-based, Oryctolagus cuniculus; settings: erythrocyte
[19] = tested on: Pseudomonas aeruginosa; test: Antibiofilm activity against Pseudomonas aeruginosa PAO1 assessed as inhibition of biofilm formation at 0.15625 uM incubated for 24 hrs by crystal violet staining based analysis relative to control; assay type: functional
[20] = tested on: Pseudomonas aeruginosa; test: Antibacterial activity against Pseudomonas aeruginosa PAO1 infected in BALB/c mouse wound infection model measured after 3 days; assay type: functional, organism-based; settings: time 3.0 day
[21] = tested on: Pseudomonas aeruginosa; test: Antivirulence activity in Pseudomonas aeruginosa PAO1 assessed as reduction in pyocyanin at 10 uM production incubated for 24 hrs relative to control; assay type: functional; set-up: scale not given: the % may be the effect or the level left
[22] = tested on: Pseudomonas aeruginosa; test: Antibacterial activity against Pseudomonas aeruginosa PAO1 infected in BALB/c mouse wound infection model assessed as bacterial survival rate in wound at 2.5 uM administered to wound once a day for 3 days in dropwise manner in presence of tobramycin; assay type: functional; settings: PAO1, 72 h, time 3 day
[23] = tested on: Pseudomonas aeruginosa; test: Antibiofilm activity against Pseudomonas aeruginosa PAO1 harboring pvds-deficient mutant assessed as inhibition of biofilm formation at 0.3125 to 10 uM incubated for 24 hrs by crystal violet staining based analysis; assay type: functional, organism-based; settings: dose 0.3125-10 µM
[24] = Toxicity in BALB/c mouse assessed as spleen damage by H and E staining based analysis; assay type: tissue-based; settings: in vivo
[25] = Inhibition of quorum sensing system in Pseudomonas aeruginosa PAO1-pqsa-gfp assessed as reduction in fluorescence intensity at 0.3125 to 10 uM measured upto 16 hrs by GFP reporter strain assay; settings: dose 0.3125-10 µM
[26] = tested on: Pseudomonas aeruginosa; test: Anti-motility activity against Pseudomonas aeruginosa PAO1 assessed as reduction in swimming motility incubated for 24 hrs; assay type: functional, organism-based; settings: dose 0.3125-10 µM
[27] = Toxicity in BALB/c mouse wound infection model assessed as lung damage measured for 9 days by H and E staining based analysis; assay type: tissue-based; settings: in vivo, 216 h, time 9 day
[28] = tested on: Pseudomonas aeruginosa; test: Antibiofilm activity against Pseudomonas aeruginosa PAO1 assessed as fold increase in pyoverdine level at 10 uM incubated for 2 hrs by fluorescence based analysis; assay type: functional
[29] = tested on: Pseudomonas aeruginosa; test: Antibacterial activity against Pseudomonas aeruginosa PAO1 infected in BALB/c mouse wound infection model assessed as reduction in wound area at 2.5 uM administered to wound once a day for 3 days and measured after 9 days in dropwise manner; assay type: functional; set-up: scale not given: the % may be the effect or the level left; settings: time 12 day
[30] = Inhibition of quorum sensing system in Pseudomonas aeruginosa PAO1-lasB-gfp assessed as reduction in fluorescence intensity at 0.3125 to 10 uM measured upto 16 hrs by GFP reporter strain assay; settings: dose 0.3125-10 µM
[31] = Toxicity in zebrafish assessed as survival rate at <100 uM measured upto 120 hrs; set-up: species or system Danio rerio; settings: in vivo
[32] = tested on: Pseudomonas aeruginosa; test: Antibiofilm activity against Pseudomonas aeruginosa PA1167 assessed as inhibition of biofilm formation incubated for 24 hrs by crystal violet staining based analysis; assay type: functional, organism-based
[33] = tested on: Pseudomonas aeruginosa; test: Antibiofilm activity against Pseudomonas aeruginosa PAO1 assessed as fold increase in pyochelin level at 10 uM incubated for 2 hrs by fluorescence based analysis; assay type: functional
[34] = tested on: Pseudomonas aeruginosa; test: Antivirulence activity in Pseudomonas aeruginosa PAO1 assessed as reduction in extracellular polysaccharides production incubated for 24 hrs; assay type: functional, organism-based; settings: dose 0.3125-10 µM
[35] = Toxicity in BALB/c mouse wound infection model assessed as kidney damage measured for 9 days by H and E staining based analysis; assay type: tissue-based; settings: in vivo, 216 h, time 9 day
[36] = tested on: Pseudomonas aeruginosa; test: Antivirulence activity in Pseudomonas aeruginosa PAO1 assessed as reduction in extracellular polysaccharides production at 10 uM incubated for 24 hrs relative to control; assay type: functional; set-up: scale not given: the % may be the effect or the level left
[37] = Toxicity in BALB/c mouse assessed as change in body weight; settings: in vivo
[38] = tested on: Pseudomonas aeruginosa; test: Antibiofilm activity against Pseudomonas aeruginosa PAO1 assessed as reduction in pFe(III) content incubated for 24 hrs by cell total iron colorimetric assay; assay type: functional, organism-based; settings: dose 0.3125-10 µM
[39] = tested on: Pseudomonas aeruginosa; test: Antibiofilm activity against Pseudomonas aeruginosa PAO1 assessed as decrease in biofilm formation incubated for 24 hrs by crystal violet staining based analysis; assay type: functional, organism-based; settings: dose 0.3125-10 µM
[40] = tested on: Pseudomonas aeruginosa; test: Antivirulence activity in Pseudomonas aeruginosa PAO1 assessed as reduction in pyocyanin production incubated for 24 hrs; assay type: functional, organism-based; settings: dose 10.0 µM
[41] = tested on: Pseudomonas aeruginosa; test: Anti-motility activity against Pseudomonas aeruginosa PAO1 assessed as reduction in swarming motility incubated for 24 hrs; assay type: functional, organism-based; settings: dose 0.3125-10 µM
[42] = tested on: Pseudomonas aeruginosa; test: Antibiofilm activity against Pseudomonas aeruginosa PA14 assessed as inhibition of biofilm formation incubated for 24 hrs by crystal violet staining based analysis; assay type: functional, organism-based; settings: PA14, 24 h
[43] = Toxicity in BALB/c mouse assessed as liver damage by H and E staining based analysis; assay type: tissue-based; settings: in vivo

In the case of `COc1ccc2nc(NCC(=O)NCCCCC(=O)NO)sc2c1`, the Activity [1] was “Non-toxic”, the Activity [2] was 64% and the Activity [3] was “Dose-dependent-effect”. For the same compound, the pIC50 ([3]; PAO1, 24 h) was 6.40, the Activity [4] was “Non-toxic” and the Activity [5] was “Non-toxic”. For the same compound, the survival at 2.5 µM [6] was 0.45%, the Activity [7] was “Dose-dependent-effect” and the Activity [8] was “Non-toxic”. For the same compound, the Activity [9] was “Non-toxic”, the Activity [10] was 43% and the Activity [11] was “No effect”. For the same compound, the Activity [12] was “Dose-dependent-effect”, the Activity [13] was 35% and the “fractional inhibitory concentration index (FICI)” value [14] was 0.29. The survival at 1000 µg/mL [15] was 0%, the Activity [16] was “Active” and the Activity [17] was “inactive”. The Activity [18] was “Non-toxic”, the inhibition at 0.1562 µM [19] was 40% and the Activity [20] was “No effect”. For the same compound, the Activity [21] was 42%, the survival at 2.5 µM [22] was 0.97% and the Activity [23] was “No effect”. The Activity [24] was “Non-toxic”, the inhibition [25] was “Active” and the Activity [26] was “Dose-dependent-effect”. For the same compound, the Activity [27] was “Non-toxic”, the “fold change (FC)” value [28] was 3.4 and the Activity [29] was 55%. The inhibition [30] was “Active”, the Activity [31] was “Non-toxic” and the Activity [32] was “Active”. For the same compound, the “fold change (FC)” value [33] was 1.7, the Activity [34] was “Dose-dependent-effect” and the Activity [35] was “Non-toxic”. For the same compound, the Activity [36] was 58%, the Activity [37] was “Non-toxic” and the Activity [38] was “Dose-dependent-effect”. The Activity [39] was “Dose-dependent-effect”, the Activity [40] was “Dose-dependent-effect” and the Activity [41] was “Dose-dependent-effect”. The pIC50 [42] was 5.84 and the Activity [43] was “Non-toxic”.
